Data from ChEMBL document CHEMBL5291721, “A preclinical secondary pharmacology resource illuminates target-adverse drug reaction associations of marketed drugs” (Nat Commun, 2023).

Legend:
[1] = molecular target: Sodium-dependent noradrenaline transporter (Homo sapiens, UniProt P23975)
D(1A) dopamine receptor = D(1A) dopamine receptor (Homo sapiens, UniProt P21728)
Progesterone receptor = molecular target: T1, Progesterone receptor (Homo sapiens, UniProt P06401)
T1 sequence (P06401 whole entry): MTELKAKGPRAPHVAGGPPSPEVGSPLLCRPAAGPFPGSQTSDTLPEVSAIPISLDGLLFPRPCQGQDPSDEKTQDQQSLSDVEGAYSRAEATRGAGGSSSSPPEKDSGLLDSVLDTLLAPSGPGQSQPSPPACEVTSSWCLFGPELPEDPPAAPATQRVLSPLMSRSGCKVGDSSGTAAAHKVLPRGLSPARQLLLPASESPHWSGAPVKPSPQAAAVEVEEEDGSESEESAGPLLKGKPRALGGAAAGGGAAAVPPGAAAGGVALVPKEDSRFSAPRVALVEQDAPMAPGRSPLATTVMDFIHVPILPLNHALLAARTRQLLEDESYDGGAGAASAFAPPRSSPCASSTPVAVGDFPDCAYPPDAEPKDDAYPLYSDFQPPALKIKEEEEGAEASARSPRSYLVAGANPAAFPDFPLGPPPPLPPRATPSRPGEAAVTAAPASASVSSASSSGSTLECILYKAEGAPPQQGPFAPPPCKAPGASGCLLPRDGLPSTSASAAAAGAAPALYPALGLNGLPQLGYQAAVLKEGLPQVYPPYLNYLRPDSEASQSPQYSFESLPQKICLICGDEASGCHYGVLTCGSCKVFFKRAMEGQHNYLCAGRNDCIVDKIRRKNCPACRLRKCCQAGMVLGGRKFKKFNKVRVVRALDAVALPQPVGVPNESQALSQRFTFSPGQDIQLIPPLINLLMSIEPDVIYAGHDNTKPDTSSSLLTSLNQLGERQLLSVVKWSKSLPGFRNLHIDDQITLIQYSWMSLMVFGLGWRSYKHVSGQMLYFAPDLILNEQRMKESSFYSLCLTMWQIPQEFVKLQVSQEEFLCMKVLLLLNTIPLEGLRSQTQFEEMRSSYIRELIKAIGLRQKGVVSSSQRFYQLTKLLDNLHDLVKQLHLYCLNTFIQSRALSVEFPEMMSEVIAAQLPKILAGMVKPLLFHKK
Also: assay procedure not described here.

Sodium-dependent noradrenaline transporter, sequence (P23975 whole entry): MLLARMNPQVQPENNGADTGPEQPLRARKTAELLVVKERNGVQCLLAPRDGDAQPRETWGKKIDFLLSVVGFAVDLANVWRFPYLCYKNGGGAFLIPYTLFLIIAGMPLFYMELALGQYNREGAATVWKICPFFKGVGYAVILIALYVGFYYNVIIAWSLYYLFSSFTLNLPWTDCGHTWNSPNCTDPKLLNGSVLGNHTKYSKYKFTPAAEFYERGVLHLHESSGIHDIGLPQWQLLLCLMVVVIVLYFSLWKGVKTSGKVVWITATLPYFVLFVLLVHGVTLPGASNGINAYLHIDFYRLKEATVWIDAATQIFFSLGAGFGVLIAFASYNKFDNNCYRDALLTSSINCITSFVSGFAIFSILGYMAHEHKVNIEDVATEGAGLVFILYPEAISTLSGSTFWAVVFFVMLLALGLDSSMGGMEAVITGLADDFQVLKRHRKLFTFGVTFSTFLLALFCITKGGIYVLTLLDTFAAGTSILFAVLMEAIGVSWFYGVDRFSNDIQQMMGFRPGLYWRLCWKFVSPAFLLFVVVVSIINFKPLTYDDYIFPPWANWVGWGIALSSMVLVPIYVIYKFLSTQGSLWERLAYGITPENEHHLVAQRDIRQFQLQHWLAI
D(1A) dopamine receptor, sequence (P21728 whole entry): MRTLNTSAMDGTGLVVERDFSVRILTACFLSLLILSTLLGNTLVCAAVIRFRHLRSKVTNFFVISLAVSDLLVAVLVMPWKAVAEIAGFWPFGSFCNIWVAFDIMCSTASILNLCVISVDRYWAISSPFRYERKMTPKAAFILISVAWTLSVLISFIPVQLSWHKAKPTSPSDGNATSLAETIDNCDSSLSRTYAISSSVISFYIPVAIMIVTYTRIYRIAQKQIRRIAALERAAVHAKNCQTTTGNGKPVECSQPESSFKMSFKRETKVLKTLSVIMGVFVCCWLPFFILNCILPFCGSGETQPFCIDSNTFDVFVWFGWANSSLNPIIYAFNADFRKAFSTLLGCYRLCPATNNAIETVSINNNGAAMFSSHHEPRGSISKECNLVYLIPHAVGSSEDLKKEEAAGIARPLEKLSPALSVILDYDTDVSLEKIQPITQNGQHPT

SMILES: Clc1ccc(C(Cn2ccnc2)OCc2csc3c(Cl)cccc23)c(Cl)c1 (stereo not drawn) [SERTACONAZOLE]
- AC50 [1]: 3.3 µM
- AC50 (D(1A) dopamine receptor): 5.39 µM
- AC50 (Progesterone receptor): 0.831 µM

SMILES: CC1(C)S[C@@H]2[C@H](/N=C/N3CCCCCC3)C(=O)N2[C@H]1C(=O)O [AMDINOCILLIN]
- AC50 [1]: > 30 µM
- AC50 (D(1A) dopamine receptor): > 30 µM
- AC50 (Progesterone receptor): > 30 µM

SMILES: CC1(CCN2CCCCC2)C(=O)CCc2ccccc21 (stereo not drawn) [NEPINALONE]
- AC50 [1]: > 30 µM
- AC50 (D(1A) dopamine receptor): > 30 µM
- AC50 (Progesterone receptor): > 30 µM

SMILES: CC(C)(C)NC(=O)N[C@H](C(=O)N1C[C@H]2[C@@H]([C@H]1C(=O)NC(CC1CCC1)C(=O)C(N)=O)C2(C)C)C(C)(C)C (stereo partly drawn) [BOCEPREVIR]
- AC50 [1]: > 30 µM
- AC50 (D(1A) dopamine receptor): > 30 µM
- AC50 (Progesterone receptor): > 30 µM

SMILES: Cc1ncc2c(c1O)COC2c1ccc(Cl)cc1 (stereo not drawn) [CICLETANINE]
- AC50 [1]: > 30 µM
- AC50 (D(1A) dopamine receptor): > 30 µM
- AC50 (Progesterone receptor): > 30 µM

SMILES: Cc1ccc(S(=O)(=O)NC(=O)NC2CCCCC2)cc1 [GLYCYCLAMIDE]
- AC50 [1]: > 30 µM
- AC50 (D(1A) dopamine receptor): > 30 µM
- AC50 (Progesterone receptor): > 30 µM

SMILES: CC(=O)O[C@H]1Cc2ccccc2N(C(N)=O)c2ccccc21 [ESLICARBAZEPINE ACETATE]
- AC50 [1]: > 30 µM
- AC50 (D(1A) dopamine receptor): > 30 µM
- AC50 (Progesterone receptor): > 30 µM

SMILES: COC(=O)C[C@](O)(CCCC(C)(C)O)C(=O)O[C@@H]1C(OC)=C[C@]23CCCN2CCc2cc4c(cc2[C@H]13)OCO4 [OMACETAXINE MEPESUCCINATE]
- AC50 [1]: > 30 µM
- AC50 (D(1A) dopamine receptor): > 30 µM
- AC50 (Progesterone receptor): > 30 µM

SMILES: CCCn1cnc2c1c(=O)n(CCCCC(C)=O)c(=O)n2C [PROPENTOFYLLINE]
- AC50 [1]: > 30 µM
- AC50 (D(1A) dopamine receptor): > 30 µM
- AC50 (Progesterone receptor): > 30 µM

SMILES: Cc1ccc(C(=O)C(C)CN2CCCCC2)cc1 (stereo not drawn) [TOLPERISONE]
- AC50 [1]: > 30 µM
- AC50 (D(1A) dopamine receptor): > 30 µM
- AC50 (Progesterone receptor): > 30 µM

SMILES: C[C@H](CCC(=O)O)[C@H]1CC[C@H]2[C@@H]3[C@H](O)C[C@@H]4C[C@H](O)CC[C@]4(C)[C@H]3C[C@H](O)[C@]12C [CHOLIC ACID]
- AC50 (D(1A) dopamine receptor): > 30 µM
- AC50 (Progesterone receptor): > 30 µM

SMILES: CC(=O)OCC(=O)[C@@]1(O)CC[C@H]2[C@@H]3CCC4=CC(=O)CC[C@]4(C)[C@H]3[C@@H](O)C[C@@]21C [HYDROCORTISONE ACETATE]
- AC50 [1]: > 30 µM
- AC50 (D(1A) dopamine receptor): > 30 µM
- AC50 (Progesterone receptor): 7.67 µM

SMILES: O=C(O)[C@@H]1C[C@@H](O)CN1
- AC50 [1]: > 30 µM
- AC50 (D(1A) dopamine receptor): > 30 µM
- AC50 (Progesterone receptor): > 30 µM

SMILES: NNCCc1ccccc1 [PHENELZINE]
- AC50 [1]: 10.8 µM
- AC50 (D(1A) dopamine receptor): > 30 µM
- AC50 (Progesterone receptor): > 30 µM

SMILES: N[C@@H](Cc1ccccc1)C(=O)O [PHENYLALANINE]
- AC50 [1]: > 30 µM
- AC50 (D(1A) dopamine receptor): > 30 µM
- AC50 (Progesterone receptor): > 30 µM

SMILES: CC(=O)[C@]1(N)Cc2c(O)c3c(c(O)c2[C@@H](O[C@H]2C[C@H](O)[C@H](O)CO2)C1)C(=O)c1ccccc1C3=O [AMRUBICIN]
- AC50 [1]: > 30 µM
- AC50 (D(1A) dopamine receptor): > 30 µM
- AC50 (Progesterone receptor): > 30 µM

SMILES: CN1CCCN(C(c2ccccc2)c2ccc(Cl)cc2)CC1 (stereo not drawn) [HOMOCHLORCYCLIZINE]
- AC50 [1]: 12.9 µM
- AC50 (D(1A) dopamine receptor): 2.4 µM
- AC50 (Progesterone receptor): > 30 µM

SMILES: Cc1cc2c(cc1S(N)(=O)=O)S(=O)(=O)CCC2
- AC50 [1]: > 30 µM
- AC50 (D(1A) dopamine receptor): > 30 µM
- AC50 (Progesterone receptor): > 30 µM
